Laboratory results reported in patent US20220323427A1, “SOMATOSTATIN RECEPTOR TYPE 5 AGONIST FOR THE TREATMENT OF HYPERINSULINISM” (Crinetics Pharmaceuticals, Inc., priority 2021, published 2022).

Key:
major human CYP enzymes = test: CYP inhibition or induction; type: in vitro ADME; conditions: including CYP2C9 and CYP3A4
[1] = test system: sulfonylurea-induced hyperinsulinism; test: Sulfonylurea (glibenclamide) challenge and euglycemic clamp, SAD; type: in vivo, human; conditions: single dose 30 mg or 60 mg
Protocol: SAD 1b/Part 1b: ascending single dose, randomized, placebo-controlled, double-blind; up to 3 cohorts, n=8/cohort; subjects in SAD 1b will undergo an SU challenge and euglycemic clamp procedure. Doses are 30 mg or 60 mg.
In SAD 1b and the MAD, subjects will undergo an SU challenge in the setting of a euglycemic clamp procedure. Sulfonylurea drugs act to close KATP channel of the pancreatic β-cell, stimulating endogenous insulin secretion. Given that the majority (50%) of patients with congenital HI harbor a mutation in the KATP channel, the SU challenge models this genetic form of HI in healthy volunteers. Intravenous glucose will be used during the euglycemic clamp to maintain glucose within a target range. […] The SU challenge cohorts in SAD 1b will assess the ability of a single dose of Compound 1 to reduce or prevent SU-induced glucose lowering as measured by reduced IV glucose infusion (reduced glucose “support”). IV glucose requirements will be assessed as a glucose infusion rate, or GIR (mg dextrose/kg body weight/minute). In the MAD, the durability of the Compound 1 effect will be measured by assessing the GIR required to maintain euglycemia during the SU challenge after 10 days of Compound 1 dosing compared to the baseline SU challenge in the absence (predose) of Compound 1. […]

[2] = MAD study pharmacokinetics; type: in vivo, human
Protocol: MAD/Part 2: multiple ascending dose, randomized, placebo-controlled, double-blind; up to 5 cohorts, n=9/cohort; subjects in MAD will receive Compound 1 or the placebo. Subjects will undergo a mixed meal tolerance test (MMTT) and an SU challenge and euglycemic clamp procedure. The doses will not exceed the doses in the SAD. Doses will escalate from 30 mg to 120 mg.

[3] = target: T1, human somatostatin receptor subtype 5 (Homo sapiens, UniProt P35346); test: cAMP assay for SST5R; type: cell-based
T1 construct: expressed in transfected cells
From the text: General overview: All five SSTR subtypes are Gi coupled G-protein coupled receptors (GPCRs) that lead to decreases in intracellular cyclic AMP (cAMP) when activated by an agonist. Therefore, measurement of intracellular cAMP levels can be used to assess whether compounds of the invention are agonists of SSTR subtypes (John Kelly, Troy Stevens, W. Joseph Thompson, and Roland Seifert, Current Protocols in Pharmacology, 2005, 2.2.1-2.2). One example of an intracellular cAMP assay is described below.
Four days prior to the assay, 2,000 Chinese hamster ovary cells (CHO-K1, ATCC #CCL-61) stably expressing the human somatostatin receptor subtype 5 are plated in each well of a 96-well tissue culture-treated plate in Ham's F12 growth media (ThermoFisher #10-080-CM) supplemented with 10% donor bovine serum (Gemini Bio-Products #100-506), 100 U/mL penicillin; 100 μg/mL streptomycin; 2 mM L-glutamine (Gemini Bio-Products #400-110) and 0.25 mg/mL G418 Sulfate (GoldBio #108321-42-2). The cells are cultured at 37° C., 5% CO2 and 95% humidity. […] The time-resolved fluorescent signal is read with a Tecan M1000Pro multiplate reader. The intracellular cAMP concentrations are calculated by regression to a standard curve and are plotted vs. the concentration of the compounds of the invention and the EC50 of the compounds are calculated using standard methods. […]

T1 sequence (P35346 whole entry): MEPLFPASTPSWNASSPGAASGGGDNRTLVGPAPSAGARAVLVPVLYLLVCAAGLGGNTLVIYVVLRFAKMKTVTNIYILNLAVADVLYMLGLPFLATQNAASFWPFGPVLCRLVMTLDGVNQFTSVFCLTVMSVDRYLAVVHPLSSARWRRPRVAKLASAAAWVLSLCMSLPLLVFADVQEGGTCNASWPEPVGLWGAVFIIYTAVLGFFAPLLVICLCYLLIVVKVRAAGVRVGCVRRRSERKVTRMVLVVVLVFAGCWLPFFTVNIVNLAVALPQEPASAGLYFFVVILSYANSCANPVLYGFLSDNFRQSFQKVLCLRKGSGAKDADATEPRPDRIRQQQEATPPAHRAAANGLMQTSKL

## C[C@H](NC(=O)c1cnc(C#N)c(-c2cc(F)cc(F)c2)c1N1CC[C@H](N)C1)C(F)(F)F [Compound 1, 4-[(3S)-3-aminopyrrolidin-1-yl]-6-cyano-5-(3,5-difluorophenyl)-N-[(2S)-1,1,1-trifluoropropan-2-yl]pyridine-3-carboxamide]
Major human CYP enzymes
  Potential for inhibition or induction of the major human CYP enzymes: little or no potential for inhibition or induction
[1]
  Effect on sulfonylurea-induced hyperinsulinism: reversed sulfonylurea-induced hyperinsulinism
  Need for IV glucose support (glucose infusion rate): eliminating the need for IV glucose support
[2]; QD dosing
  Time to steady state trough levels: ~8 days
[2]; QD dosing 30-120 mg
  Mean accumulation at steady state for AUC: 2-2.5 ×
  Mean accumulation at steady state for Cmaz: 1.6-1.8 ×
[2]; between 30 and 120 mg doses
  Dose proportionality of exposures: Modestly greater than proportional increases in exposures
[3]; human SST5 vs human SST2, cAMP
  Fold selectivity for SST5 vs SST2: >500 fold
[3]; inhibition of cAMP, CHO-K1 cells expressing human SST5, read-out: SST5 potency (EC50; nM)
  EC50: < 1 nM
